Like-named read-outs stand apart in the source and are kept apart here.

Series [1] has as its system animal models of depression. The note with it: cited from earlier work.
Series [2] relates to Generalized Anxiety and Social Anxiety Disorder patients. The note with it: treatment-refractory patients; cited from earlier work.
The conditions of series [3]: Yanagihara et al (2003); cited from earlier work.
Series [4] relates to Parkinson's disease sufferers. Particulars: cited from earlier work.
Series [5] relates to chronic pain. Particulars: oral; cited from earlier work.
Series [6] concerns bipolar disorder. The note with it: intravenous; cited from earlier work.
Series [7] can be described thus: Single dose crossover study in healthy volunteers, pharmacokinetics. Particulars: both, human, plasma; for AUC(0-inf): AUC0-inf; for AUC(0-inf) / AUC(0-t) / Cmax: geometric mean; for AUC(0-t): AUC0-t; for Cmax: 15 subjects; for half-life: t1/2, geometric mean; for Tmax: median. From the text:
A randomized, open-label 4-way crossover study in 16 healthy male and female subjects was held wherein said subjects were placed in a randomly assigned order and administered esketamine. Each subject was assigned to 1 of 4 treatment sequences according to a randomization code such that 4 subjects were assigned to each treatment sequence. There was a wash-out period of at least 7 days between dosing periods with doses consisting of either oral or intravenous esketamine hydrochloride. The study consisted of an eligibility screening period of 28 days, 4 study periods involving administration of a single dose of esketamine hydrochloride followed by safety assessments with blood sampling for PK purposes up to 72 hours after study drug administration, discharge at 72 hours after study drug administration and a follow-up visit 7-14 days after the last PK blood sample was taken on Day 4.

Series [8] relates to human peripheral blood lymphocytes (HPBL). On the procedure: The clastogenic potential of esketamine was evaluated in the in vitro mammalian chromosome aberration test using human peripheral blood lymphocytes (HPBL) in both the absence and presence of an induced metabolic activation system (the 9000 g supernatant [S9] microsomal fraction of liver homogenate from rats exposed to Aroclor-1254).
The study was conducted in 2 phases, with a preliminary toxicity test used to determine the appropriate concentrations for the definitive chromosomal aberration assay. Water was used as a negative (vehicle) control. Toxicity (defined as >45% reduction in MI relative to the vehicle control) was evaluated at 9 concentrations, ranging from 0.0238 to 238 μg/ml, after exposure of HPBL to esketamine for 20 hours in the absence of S9 activation, or for 4 hours, either in the presence or absence of S9 activation, followed by a 16-hour recovery period.
The definitive chromosome aberration assay evaluated HPBL cells after exposure to esketamine for 20 hours in the absence of S9 activation, or for 4 hours, either in the presence of absence of S9 activation, followed by a 16-hour recovery. Positive controls for chromosomal aberrations in non-activated and S9-activated evaluations, respectively, consisted of mitomycin C (MMC, 0.6 and 0.3 μg/mL for the 4- and 20-hour exposures, respectively) and cyclophosphamide (CP, 2.5, 5, and 7.5 μg/mL). […] Initially, the doses selected for evaluation of chromosomal aberrations were 60, 120, and 238 μg/mL for the non-activated 4- and 20-hour treatment conditions; and 30, 60, and 200 μg/mL for the S9-activated 4-hour treatment condition.

Series [9] shares this test system. On the procedure:
The clastogenic potential of (S)-norketamine was evaluated in the in vitro mammalian chromosome aberration test using human peripheral blood lymphocytes (HPBL) in both the absence and presence of an induced metabolic activation system (the 9000 g supernatant [S9] microsomal fraction of liver homogenate from rats exposed to phenobarbital/5,6-benzoflavone).
The study was conducted in 2 phases, with a preliminary toxicity test used to determine the appropriate concentrations for the definitive chromosomal aberration assay. Water was used as a negative (vehicle) control. In both phases, the cells were treated for 3 and 21 hours in the absence of S9 mix and for 3 hours in the presence of S9 mix. The mitotic index was assessed for all cultures to determine cytotoxicity. Ten concentrations, ranging from […], were evaluated in the preliminary toxicity test.
This is another data set of the same source.

Where [10] appears, read: iv, 0.3 mg/kg, plasma analyte after single dose esketamine 0.3 mg/kg iv.
Setting [11] is: po, 20 mg, plasma analyte after single dose esketamine 20 mg oral solution.
The mark [12] stands for this setting: po, 20 mg, plasma analyte after single dose esketamine 20 mg oral tablet.
Setting [13] is: po, 100 mg, plasma analyte after single dose esketamine 100 mg oral tablet.
Where [14] appears, read: S9-activated system, positive control.

For `CN[C@@]1(c2ccccc2Cl)CCCCC1=O` [(R)-ketamine, (2R)-2-(2-Chlorophenyl)-2-(methylamino) cyclohexanone], the “antidepressant effects compared with esketamine” value in series [1] is “greater potency and longer-lasting antidepressant effects than esketamine”.

Consider `CNC1(c2ccccc2Cl)CCCCC1=O` (stereo not drawn) [ketamine, dl 2-(2-chlorophenyl)-2(methylamino) cyclohexanone], for which the anxiety ratings entry in series [2] was “improvement in anxiety ratings within an hour of ketamine dosing which persisted for up to a week”. Moreover, the nasal bioavailability in series [3] is on record as 45%. The levodopa induced dyskinesia entry in [4] is “could reduce levodopa induced dyskinesia”. In addition, the chronic pain entry in [5] is listed as “could reduce chronic pain”. Moreover, the “effect in bipolar disorder” value in [6] is “robust and rapid effect”.

In series [7] (setting [10]), `N[C@]1(c2ccccc2Cl)CCC[C@H](O)C1=O` [(2S,6S)-OH-Norketamine, (2S,6S)-2-Amino-2-(2-chlorophenyl)-6-hydroxycyclohexanone] had an AUC(0-inf) of 390 ng·h/mL, an AUC(0-t) of 376 ng·h/mL, a Cmax of 24.8 ng/mL and a half-life of 10.7 h. Further, the Tmax in series [7] (setting [10]) is 3 h. Besides, in series [7] (setting [11]), the AUC(0-inf) came out at 378 ng·h/mL, the AUC(0-t) amounted to 366 ng·h/mL, the Cmax stood at 46.5 ng/mL and the half-life is 7.83 h. Moreover, the Tmax in series [7] (setting [11]) is 1 h. In addition, in [7] (setting [12]), the AUC(0-inf) was found to be 401 ng·h/mL, the AUC(0-t) amounted to 390 ng·h/mL, the Cmax amounted to 45.8 ng/mL and the half-life was 7.77 h. For the same compound, the Tmax in series [7] (setting [12]) stood at 1.5 h. In [7] (setting [13]), this compound gave an AUC(0-inf) of 1960 ng·h/mL, an AUC(0-t) of 1950 ng·h/mL, a Cmax of 189 ng/mL and a half-life of 8.92 h. For the same compound, the Tmax in series [7] (setting [13]) was found to be 2 h.

On to `CO[C@@]12[C@H](COC(N)=O)C3=C(C(=O)C(C)=C(N)C3=O)N1C[C@@H]1N[C@@H]12` [MMC, mitomycin C], for which the “cells with structural chromosomal aberrations” value in series [8] came to 13.3%. In series [8] (non-activated systems, positive control), the “mean MI value” stood at 9%. Moreover, in [9], the “proportion of aberrant cells” value is recorded as “statistically significant increases”.

For the compound `N[C@]1(c2ccccc2Cl)CCCCC1=O` [(S)-norketamine, (2S)-2-(2-Chlorophenyl)-2-(amino) cyclohexanone], in series [9], the “Toxicity (mitotic index), preliminary toxicity test” value is recorded as “not observed at any dose”; the “clastogenicity, conclusion” value is “non-clastogenic”; the “proportion of metaphase figures containing chromosomal aberrations vs vehicle control” value is “no statistically significant increases”. The “proportion of polyploid or endoreduplicated metaphase cells vs vehicle control” value in [9] (any treatment condition) was “No statistically significant increases”. In series [7] (setting [10]), this compound gave an AUC(0-inf) of 441 ng·h/mL, an AUC(0-t) of 426 ng·h/mL, a Cmax of 42.2 ng/mL and a half-life of 11.3 h. For the same compound, in series [7] (setting [10]), the Tmax came out at 1.25 h. In series [7] (setting [11]), the area under the curve AUC(0-inf) stood at 417 ng·h/mL, the AUC(0-t) came out at 405 ng·h/mL, the peak level (Cmax) was 99.8 ng/mL and the half-life is 8.88 h. Besides, the Tmax in [7] (setting [11]) was 0.75 h. In [7] (setting [12]), this compound gave an AUC(0-inf) of 429 ng·h/mL, an AUC(0-t) of 418 ng·h/mL, a Cmax of 89.7 ng/mL and a half-life of 8.75 h. Further, the Tmax in [7] (setting [12]) was 1 h. Also, in series [7] (setting [13]), the AUC(0-inf) turned out to be 2280 ng·h/mL, the AUC(0-t) amounted to 2270 ng·h/mL, the maximum concentration (Cmax) came out at 352 ng/mL and the half-life is 9.27 h. Further, in series [7] (setting [13]), the Tmax was determined as 1 h.

Regarding `O=P1(N(CCCl)CCCl)NCCCO1` (centres unmarked) [CP, cyclophosphamide], in series [8] (setting [14]), the “cells with structural aberrations” value was 10.7% and the “mean MI value” was found to be 6.2%. Besides, the “proportion of aberrant cells” value in [9] (positive control compounds) is listed as “statistically significant increases”.
